Legend:
[1] = tested on: BxPc3, MIA PaCa-2 and AsPc-1 pancreatic cells; experiment: In vitro cytotoxicity by MTS across pancreatic cell lines; details: FIG. 5
Description: (§1) In vitro cytotoxicity assessment. All cell lines were cultured in monolayers in sterile, vented culture flasks (Corning). Cells were passaged, collected, and then counted with 0.4% Trypan Blue (Thermo Fisher Scientific). Cells were then formulated in their respective media and plated in 96-well plates at 5,000 cells per well in 100 μL. After allowing cells to incubate at 37° C. for 12 h, drugs were then added to the wells. Each drug was formulated at the highest concentration in the cell media and then serially diluted. A PTX equivalent concentration between 10-4 and 10-12 M of each construct was plated in quadruplicate and allowed to incubate for 72 h. 20 μL of CellTiter 96® AQueoous One solution (Promega) was then added to each well. After 1.5 h, the absorbance of each plate was read at 490 nm and normalized to untreated cells to determine the relative cell survival. The half effective concentration (EC50) was calculated as the inflection between the curve's maxima and minima.

[2] = tested on: BxPc3 cells; experiment: MTS cell proliferation assay (in vitro cytotoxicity)
Description: as §1

[3] = tested on: BxPc3 cells; experiment: Cell cycle distribution by propidium iodide flow cytometry (G2/M arrest); assay type: cell-based, human; details: 1 nM of equivalent paclitaxel
Description: As radiation sensitization is driven by late G2/M arrest, the effects of paclitaxel on cell cycle progression were examined. BxPc3 cells were treated in vitro with 1 nM of equivalent paclitaxel, stained with propidium iodide to measure relative DNA quantities, and analyzed by flow cytometry to assess the cell cycle distribution over time.

## CC(=O)O[C@H]1C(=O)[C@@]2(C)[C@H]([C@H](OC(=O)c3ccccc3)[C@]3(O)C[C@H](OC(=O)[C@H](O)[C@@H](NC(=O)c4ccccc4)c4ccccc4)C(C)=C1C3(C)C)[C@]1(OC(C)=O)CO[C@@H]1C[C@@H]2O [PTX, paclitaxel]
[1]
  cytotoxicity in each cell line: nanomolar cytotoxicity
[2]; FIG. 4A
  in vitro cytotoxicity: nanomolar
[2]; Homo sapiens, BXPC-3, 72 h, read-out: relative half-inhibitory concentration (EC50)
  EC50: 3.7 nM
[3]
  peak proportion of cell population in G2/M phase: 37.9%
  time to maximum proportion of G2/M cells: 12 h
